Tested on: Ewing sarcoma cells
Assay: Panel of 5 pediatric cancer cell lines, selective cytotoxicity
Assay type: cell-based
Conditions: 5 types of solid pediatric cancers

## O=C1C[C@H](O)[C@@H]2c3c(ccc(O)c31)-c1ccc(O)c3c1[C@@]2(O)CCC3=O [Altertoxin I, altertoxin I]
  selective cytotoxic activity against Ewing sarcoma cells: did not show selective cytotoxic activity

Reference: patent US10874631B2, “Altertoxin II as a selective inhibitor of Ewing family of tumor cells” (priority 2016, dated 2020)
